Reference: the NIST ThermoML archive (doi:10.1007/s10765-010-0742-8)
Where “and” joins values, the source holds several entries; their conditions need not be identical. Equal entries are not always repeated. ± gives the expanded uncertainty stated by the source.

How the values were obtained:
[1] = mn = molality of the nth substance listed, in mol/kg; settings: 101 kPa, Liquid, m1 = 0.1; for viscosity: Capillary tube (Ostwald / Ubbelohde) method; for mass density: Pycnometric method
[2] = refractive index (Na D-line) (dimensionless); mn = molality of the nth substance listed, in mol/kg; settings: 101 kPa, Liquid, Standard Abbe refractometry, m1 = 0.1

With `O=C[C@H](O)[C@@H](O)[C@@H](O)[C@H](O)CO` [(+)-galactose] + O the viscosity ([1]; 298.15 K) was 0.9284 ± 0.0067 mPa·s, the mass density ([1]; 298.15 K) was 1003.9 ± 0.3 kg/m3 and the viscosity ([1]; 303.15 K) was 0.8345 ± 0.0061 mPa·s. The mass density ([1]; 303.15 K) was 1002.3 ± 0.4 kg/m3 and 1002.4 ± 0.4 kg/m3, the viscosity ([1]; 308.15 K) was 0.7518 ± 0.0055 mPa·s and the mass density ([1]; 308.15 K) was 1001 ± 0.4 kg/m3. The viscosity ([1]; 313.15 K) was 0.6858 ± 0.0051 mPa·s, the mass density ([1]; 313.15 K) was 999.5 ± 0.4 kg/m3 and the refractive index ([2]; 298.15 K) was 1.3345 ± 0.0004. For the same compound, the refractive index ([2]; 303.15 K) was 1.334 ± 0.0004 and 1.3339 ± 0.0004, the refractive index ([2]; 308.15 K) was 1.3335 ± 0.0004 and the refractive index ([2]; 313.15 K) was 1.3329 ± 0.0004.
